Read-outs that look alike come from different tables or passages of the source.
Tests used:
[1] = assay type: in vivo, humans
Description: TPA solution in a sterile syringe was injected into 200 ml of saline and mixed well for i.v. infusion.
2. The Toxicity and Side Effects of Different TPA Doses Administered Clinically:
One mg TPA in solution was mixed well with 200 ml of saline for i.v. infusion which was completed in 1 h at the rate of 16 μg/min. […] The above symptoms could be alleviated by giving the patients glucocorticoids. […] The cardiac, hepatic, renal and pulmonary functions were all found to be normal.
0.5 mg of TPA in solution was mixed well with 200 ml of saline for i.v. infusion which was completed in 1 h at the rate of 8 μg/min. […] Difficulty in breathing was not observed. The cardiac, hepatic, renal and pulmonary functions were all normal.
0.25 mg of TPA in solution was mixed well with 200 ml of saline for i.v. infusion which was completed in 1 h at the rate of 4 μg/min. […] The cardiac, hepatic, renal and pulmonary functions were all normal.

HL-60 cells = assay: TPA + low doses of Ara-C, HL-60 differentiation; assay type: cell-based, human
Source text: (2) TPA+Low Doses of Ara-C:

[2] = tested on: Peripheral White Blood Cells (WBC) and Hemoglobin (Hb); assay: Peripheral white blood cell and hemoglobin counts in S180 cell-injected mice; assay type: in vivo; conditions: for WBC count: control 13.6±1.8; for Hb: control 134±15
Description: Effect of TPA on the Peripheral White Blood Cells (WBC) and Hemoglobin (Hb) Counts in S180 Cell-Injected Mice:
S180 cells were injected into mice. On the third day, the mice were given TPA i.p. at 50, 100 or 200 μg/kg/d for 7 days. On the second day after the treatment was completed, blood samples were taken from the tails of the treated mice for WBC and Hb analyses.

[3] = 0.25 mg/patient×4/week, i.v. infusion in 1 h
[4] = 0.5 mg/patient×2/week, i.v. infusion in 1 h
[5] = 1 mg/patient/week, i.v. infusion in 1 h

With `CCCCCCCCCCCCCC(=O)O[C@@H]1[C@@H](C)[C@@]2(O)[C@@H](C=C(CO)C[C@]3(O)C(=O)C(C)=C[C@@H]23)[C@@H]2C(C)(C)[C@]12OC(C)=O` [TPA, Phorbol 12-Myristate-13-Acetate] the Hb in urine [1, 3] was “No Hb was detected in the urine”, the “cardiac, hepatic, renal and pulmonary functions” value (“cardiac, hepatic” for short) [1, 3] was “normal” and the chills and fever [1, 3] was “also observed, but to a much lesser extent than with the higher dosages”. For the same molecule, the difficulty in breathing [1, 3] was “no patient suffered difficulty in breathing”, the Hb in urine [1, 4] was “Occasionally, Hb was detected in patients urine” and the “cardiac, hepatic” value [1, 4] was “normal”. The difficulty in breathing [1, 4] was “not observed”, the tolerability ([1]; 0.5 mg/patient×2/week, versus 1 mg) was “tolerated the lower dose more easily” and the Hb in urine [1, 5] was “Hb was detected in the urine”. The bleeding [1, 5] was “a minority of patients to bleed”, the “cardiac, hepatic” value [1, 5] was “normal” and the difficulty in breathing [1, 5] was “several patients suffered for a short period of time difficulty in breathing”. The duration of chills [1, 5] was “about 30 min”, the duration of fever [1, 5] was 3 to 5 h and the “fever, patients' temperature” value [1, 5] was 37.5-39.5 °C. The onset of chills [1, 5] was “One hour after TPA administration”, the perspiration [1, 5] was “light to heavy perspiration” and the “reversibility of side effects” value [1, 5] was “short lived and reversible”. For the same molecule, the local irritation ([1]; TPA application) was “strong local irritation”, the HL-60 cell differentiation (HL-60 cells; TPA alone, low dose 20 ng/ml) was “weak cell differentiation-inducing agent” and the HL-60 cell differentiation (HL-60 cells; combination of TPA and Ara-C) was “induced the HL-60 cells to differentiate synergistically”. For the same molecule, the WBC count ([2]; i.p. 50 μg/kg/d for 7 d) was 16.1±7.4 ×10^9 /L, the Hb ([2]; i.p. 50 μg/kg/d for 7 d) was 136 ± 11 g/L and the WBC count ([2]; i.p. 100 μg/kg/d for 7 d) was 18.7±3.0 ×10^9 /L. The Hb ([2]; i.p. 100 μg/kg/d for 7 d) was 149 ± 12 g/L, the WBC count ([2]; i.p. 200 μg/kg/d for 7 d) was 20.7±3.4 ×10^9 /L and the Hb ([2]; i.p. 200 μg/kg/d for 7 d) was 149 ± 10 g/L. The “effect on Hb levels” value ([2]; i.p. 50-200 μg/kg/d for 7 d) was “not greatly affected” and the “effect on peripheral WBC counts” value ([2]; i.p. 50-200 μg/kg/d for 7 d) was “could increase the peripheral WBC counts in mice in a dose-dependent manner”.

Source: US6063814A, “Phorbol esters as anti-neoplastic and white blood cell elevating agents” (priority 1997, dated 2000)
